Test results from PubChem BioAssay AID504313 (Emory University Molecular Libraries Screening Center, 2011).
The source made the active and inactive calls. No rule for the calls is given here.

Biological target: X-box-binding protein 1 (Homo sapiens) (UniProt P17861)
Assay: XBP1 reporter suppression in cells – counter-screen, dose response (AID 504313);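 also: CHO cells carrying an XBP1 reporter stimulated with tunicamycin; potency is for inhibition of the tunicamycin-induced reporter signal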
Conditions: XBP1 reporter cell assay, percent of control

Row | Structure (SMILES) | IC50
1 | Cc1cccc(NS(=O)(=O)c2ccc(C3CCCCC3)cc2)c1 | 4.03 µM
2 | CCOC(=O)c1c(-n2c(C)cc(C=C3C(=O)NC(=S)NC3=O)c2C)sc2c1CCCC2 | inactive
3 | O=C(Nc1cccc(Cl)c1Cl)c1cc(S(=O)(=O)NCCc2ccccc2)ccc1F | inactive
4 | CC(=O)C1=C(S(=O)(=O)c2ccc(C)cc2)CS(=O)(=O)C1 | > 10 µM (inactive)
5 | CS(=O)(=O)c1ccc(S(=O)CC(=O)OCc2ccccc2)c([N+](=O)[O-])c1 (stereo not given) | inactive
6 | CCOC(=O)c1c2ccc(OCC(=O)N/N=C/c3ccc(C)cc3)cc2n2ccccc12 | inactive
7 | FC(F)(F)c1cccc(NC(=S)N2CCN(c3cccc(C(F)(F)F)c3)CC2)c1 | 4.52 µM
8 | O=C(O)c1cccc(COc2ccccc2Cl)c1 | 0.91 µM
9 | Cc1ccc(N2C(=O)NC(=O)/C(=C\C=C\c3ccco3)C2=O)cc1C | > 10 µM (inactive)
10 | CCOc1ccc(-n2c(SCC(=O)Nc3ccc(Br)cc3)nc3n[nH]c(C)c3c2=N)cc1 | > 10 µM (inactive)
11 | Clc1ccc2[nH]c(-c3ccccc3)cc2c1 | > 10 µM (inactive)
12 | Cc1ccc(NP(=O)(Oc2ccccc2F)Oc2ccccc2F)cc1 | inactive
13 | CC(C)(C)C(=O)NC(=S)NNC(=O)C(c1ccccc1)c1ccccc1 | > 10 µM (inactive)
14 | Cc1nn(Cc2c(Cl)cccc2Cl)c(C)c1NC(=O)c1cn(-c2ccccc2)nc1-c1ccccc1 | inactive
15 | O=S1(=O)C=C(Sc2nc3ccccc3s2)c2ccccc21 | 2.74 µM
16 | CC(C)(C)c1ccc(C(=O)Nc2ccc(CC(=O)O)cc2)o1 | < 0.16 µM
17 | CS(=O)(=O)c1nc(-c2ccc(F)cc2)cc(C(F)(F)F)n1 | inactive
18 | CCOC(=O)c1cc(-c2cccs2)nc2c1c(C)nn2-c1ccccn1 | > 10 µM (inactive)
19 | Cc1cc(C(=O)COC(=O)c2ccccc2O)c(C)n1Cc1cccs1 | < 0.16 µM (inactive)
20 | COc1ccc(-c2cnc(OC(C)(C)C)nc2OC(C)(C)C)cc1OC | inactive
21 | O=C1c2ccccc2-c2onc3ccc(Oc4ccccc4)c1c23 | inactive
22 | CCCCCCCCCS(=O)(=O)N/N=C/c1cccc([N+](=O)[O-])c1 | inactive
23 | O=C(Nc1nccs1)c1cc2c(s1)CCCCC2 | > 10 µM (inactive)
24 | CCOc1ccc2nc(NC(=O)CSc3nc4c(c(=O)n(C)c(=O)n4C)n3C(C)C)sc2c1 | > 10 µM (inactive)
25 | Cc1ccc2sc(N(CCCN(C)C)C(=O)c3nc4ccccc4s3)nc2c1C | inactive

Row | Structure (SMILES) | IC50
26 | CCN(CC)CCn1c(SCC(=O)Nc2ccc(F)cc2)nc2c(sc3ccccc32)c1=O | > 10 µM (inactive)
27 | CCc1ccc(OCC(=O)NC(NC(=S)Nc2ccccc2)C(Cl)(Cl)Cl)cc1 (stereo not given) | > 10 µM (inactive)
28 | CC(C)(C)c1cc(S(=O)(=O)CCc2ccccn2)cc(C(C)(C)C)c1F | inactive
29 | O=C(O)CSCC(=O)Nc1ccc(C2CCCCC2)cc1 | inactive
30 | Cc1cccc(N=Nc2c(N)n[nH]c2-c2ccc(Cl)cc2)c1 | > 10 µM (inactive)
31 | Cc1cccc(OCc2n(CC(=O)OC3CC(C)CCC3C(C)C)c3ccccc3[n+]2C)c1 (stereo not given) | > 10 µM (inactive)
32 | C=CCc1cccc(/C=N/NC(=O)CCCNc2ccc(C)cc2)c1O | inactive
33 | CCOc1cc(/C=C2/C(=O)ON=C2C)ccc1OCc1ccccc1F | > 10 µM (inactive)
34 | COc1ccc(CC(=O)Nc2cccc(-c3nnc(-c4cccc(C)c4)o3)c2)cc1OC | inactive
35 | O=C(O)c1ccc(N/N=C/c2ccc3nccnc3c2)cc1 | 1.83 µM
36 | O=C(Nc1ccc(Cl)c(C(F)(F)F)c1)NC1CC2CCCC(C1)N2Cc1ccccc1 (stereo not given) | > 10 µM (inactive)
37 | O=C(Cc1csc(Nc2nc(=S)[nH]c3ccccc23)n1)NCCCN1CCN(c2ccccc2F)CC1 | > 10 µM (inactive)
38 | CC(CNC(=S)Nc1cc(F)cc(F)c1)CSc1ccc(Cl)cc1 (stereo not given) | > 10 µM (inactive)
39 | CCOC(=O)C1=C(C)NC(C)=C(C(=O)OCC)C1/C=C/c1ccccc1 | inactive
40 | CCCc1cc(-c2nc(N)ncc2-c2ccc3c(c2)OCCCO3)c(O)cc1OC | 5.01 µM
41 | CC(C)(C)OC(=O)CNC(=O)c1[nH]cnc1C(=O)Nc1ccc(Cl)cc1 | inactive
42 | Oc1ccc(/C=N/Nc2nc(-c3ccc(Cl)cc3)cc(C(F)(F)F)n2)cc1 | > 10 µM (inactive)
43 | CC(C)COc1ccc(/C(=N/O)c2ccccc2)cc1 | inactive
44 | FC(F)(F)c1cccc(Sc2nc(-c3ccccc3)nnc2C(F)(F)F)c1 | inactive
45 | CC(C)(C)c1ccc(OCC(=O)N/N=C/C2CC=CCC2)cc1 (stereo not given) | inactive
46 | CCc1c(C)sc(NC(=O)CSc2nc3c(c(C(F)(F)F)n2)CCc2ccccc2-3)c1C#N | > 10 µM (inactive)
47 | COc1cc(OC)nc(-n2ncc(Br)c(Br)c2=O)n1 | 1.99 µM
48 | N#CC1=C(N)N2C(=C(C#N)C1c1ccc(Br)cc1)Nc1ccccc12 (stereo not given) | inactive
49 | COc1ccc(NC(=O)c2cc3cccc(OC)c3oc2=Nc2ccc(C(=O)O)cc2)cc1OC | inactive
50 | Cc1ccc(N2C(=O)NC(=O)/C(=C\C=C\c3ccco3)C2=O)cc1 | inactive
